Measurements: paper PMC9322189, “Development of a Personalized Tumor Neoantigen Based Vaccine Formulation (FRAME-001) for Use in a Phase II Trial for the Treatment of Advanced Non-Small Cell Lung Cancer” (Pharmaceutics, 2022)
Blank lines part the entries; values can stand above or below the sequence they belong to. No end group written: not given here.

Experiments:
Type in all cases: physicochemical
[1] = Filter experiment: peptide adsorption to the 0.22 µm sterilization filter, UPLC-MS; conditions: in FRM001M1
[2] = Release testing and long-term (frozen) stability of aqueous peptide mixtures (143 µg/mL per peptide in PBS 10 mM pH 7.0), UPLC-MS; conditions: in FRM001-M1
[3] = In-use stability of thawed aqueous peptide mixtures at room temperature, UPLC-MS; conditions: 4 h room temperature
[4] = Freeze–thaw stability of model peptides, UPLC-MS; conditions: 150 µg/mL in PBS, two freeze–thaw cycles, fivefold on three consecutive days
Method: A UPLC-MS system was used for the development and validation of the stability-indicating analytical method. The apparatus, column, flow rate, mobile phase A, mobile phase B, mass acquisition, and sample run time were: UPLC UltiMate 3000 RSLC System (Thermo Fisher Scientific, Waltham, MA, USA) coupled to a Q Exactive Orbitrap Mass Spectrometers (Thermo Fisher Scientific, Waltham, MA, USA); Acquity UPLC Peptide CSH C18, 130 Å, 1.7 µm, 2.1 mm × 150 mm (Waters Corporation, Milford, MA, USA); 0.40 mL/min; 0.013% ammonium formate and 0.1% formic acid dissolved in ultrapure water (pH 2.8); 0.013% ammonium formate and 0.1% formic acid dissolved in a mixture of 0.495:0.495:0.10 methanol, acetonitrile, and ultrapure water; masses scanned from 300.0–1900.0 m/z; 15 min; respectively. The mobile phase gradient started at t0 min with 98% of mobile phase A that was gradually adjusted to 40% at t9 min. At t9.1 min, mobile phase A was set at 2% till t11.1 min. At t11.2 min, mobile phase A was set at 98% until the end of the sample run time.
For each peptide, six stock concentrations in the range of 5–225 µg/mL dissolved in PBS were made. The linear relationship of the calibration curves was investigated by regression analysis. The linear correlation coefficient (R^2), goodness of fit, and lack of fit were analyzed. For the accuracy and precision tests, samples of 50 µg/mL, 150 µg/mL, and 225 µg/mL were analyzed in triplicate on three consecutive days to determine the closeness of agreement of the measurements compared to the analyzed concentrations (accuracy % bias) and repeated experiments (relative standard deviations (RSD)). For the sensitivity test, peptide samples at 5 µg/mL were analyzed in triplicate on three consecutive days and the signal-to-noise (S/N) ratio was calculated from representative chromatograms. For the freeze–thaw experiment, samples at 150 µg/mL for each of the three peptides were prepared and analyzed in fivefold on three consecutive days after each sample was subjected to two freeze–thaw cycles before the analysis was initiated.

Peak ratio ([1]; filtered (0.22 µm Millex GV)): 10.8%
Peak ratio ([1]; unfiltered sample): 10.9%
Peptide peak ratio ([2]; 2 w −25 °C): 11.2%
Peptide peak ratio ([2]; 4 w −25 °C): 10.5%
Peptide peak ratio ([2]; 8 w −25 °C): 10.9%
Peptide peak ratio ([2]; 8 w −80 °C): 10.8%
Peptide peak ratio ([2]; 12 w −25 °C): 11.9%
Peptide peak ratio ([2]; 16 w −25 °C): 10.1%
Peptide peak ratio ([2]; 16 w −80 °C): 10.7%
Peptide peak ratio ([2]; 32 w −25 °C): 7.5%
Peptide peak ratio ([2]; 32 w −80 °C): 11.8%
Peptide peak ratio ([2]; t = 0 w, % area of peptide peak of sum of the six peptide peaks): 10.8%
Peptide peak ratio ([3]; in FRM001-M1, 2 w −25 °C): 11.3%
Peptide peak ratio ([3]; in FRM001-M1, 4 w −25 °C): 10.5%
Peptide peak ratio ([3]; in FRM001-M1, 8 w −25 °C): 10.8%
Peptide peak ratio ([3]; in FRM001-M1, 8 w −80 °C): 10.7%
Peptide peak ratio ([3]; in FRM001-M1, 12 w −25 °C): 11.2%
Peptide peak ratio ([3]; in FRM001-M1, 12 w −80 °C): 11.2%
Peptide peak ratio ([3]; in FRM001-M1, 16 w −25 °C): 10.5%
Peptide peak ratio ([3]; in FRM001-M1, 16 w −80 °C): 10.6%
Peptide peak ratio ([3]; in FRM001-M1, 32 w −25 °C): 10.9%
Peptide peak ratio ([3]; in FRM001-M1, 32 w −80 °C): 11.5%
Sequence: RHSPNGNGPRSQHHSLITTNTDPSCSCVT [FRM001P14, neoantigen peptide, in FRM001-M1]

Freeze–thaw stability, average bias [4]: 1%
Sequence: SAMEKRGARETQQQRKRVFRGRGVNSAK [FRM001P11]

Freeze–thaw stability, average bias [4]: 8%
Sequence: SVTNTSLAHELWKVPLHLKTSLLRPAHLRD [FRM001P02]

Freeze–thaw stability, average bias [4]: 4%
Sequence: VTLEERLDKACEPGVDYDGQTGVIHFQPRG [FRM001P23]
